According to patent US5589489A, “Cyclic amide derivatives for treating asthma” (Zeneca Limited, priority 1993, dated 1996):
Counter-ions that a name gives are not always drawn.

Target: T1, guinea pig trachea (Cavia porcellus, UniProt Q64077)
T1 construct: functional assay in guinea pig trachea; from tissue; host or cells: guinea pig trachea (male animals), tracheal rings
T1 sequence (Q64077 1-402): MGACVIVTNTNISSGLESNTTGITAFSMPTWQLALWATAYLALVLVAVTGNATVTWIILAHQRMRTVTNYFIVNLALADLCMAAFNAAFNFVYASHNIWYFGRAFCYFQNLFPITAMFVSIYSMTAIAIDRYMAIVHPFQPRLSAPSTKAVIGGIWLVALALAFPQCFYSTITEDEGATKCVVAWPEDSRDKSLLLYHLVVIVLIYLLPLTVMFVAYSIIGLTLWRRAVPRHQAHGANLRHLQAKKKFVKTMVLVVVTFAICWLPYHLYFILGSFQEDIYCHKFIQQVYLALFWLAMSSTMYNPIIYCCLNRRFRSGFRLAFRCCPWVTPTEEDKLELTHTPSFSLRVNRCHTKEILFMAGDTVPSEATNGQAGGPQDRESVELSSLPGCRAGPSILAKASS
Experiment: Guinea Pig Assay (Test B), functional antagonism of NKA or [β-ala8]-NKA(4-10) in guinea pig trachea
Type: cell-based
Conditions: read-out: pKB (-log molar KB, apparent dissociation constant) (converted)
Experimental: The chosen agonist is refered to as AG throughout the description.
Male guinea pigs are killed by a sharp blow to the back of the head. The trachea are removed, trimmed of excess tissue and divided into two segments. Each segment is suspended as a ring between stainless steel stirrups in water-jacketed (37.5° C.) tissue baths containing a physiological salt solution of the following composition (mM): NaCl, 119; KCl 4.6; CaCl2, 1.8; MgCl2, 0.5; NaH2 PO4, 1; NaHCO3, 25; glucose, 11; thiorphan, 0.001; and indomethacin, 0.005; gassed continuously with 95% O2 -%5 CO2. […] Contractile responses are measured on a Grass polygraph via Grass FT-03 force transducers.
Tissues are challenged repetitively with a single concentration of AG (10 nM) with intervening 30 min periods with washing to allow the tension to return to baseline levels. […] Percent inhibition is determined when a Compound produces a statistically significant (p<0.05) reduction of the contraction and is calculated using the second contractile response as 100%.
Potencies of selected Compounds are evaluated by calculating apparent dissociation constants (KB) for each concentration tested using the standard equation: […]
where dose ratio=antilog[(AG -log molar EC50 without Compound)-(AG -log molar EC50 with Compound)]. The KB values may be converted to the negative logarithms and expressed as -log molar KB (i.e. pKB). […]

SMILES: CN1C(=O)c2ccccc2[C@H]1[C@@H](CCN1CCC(O)(c2ccccc2)CC1)c1ccc(Cl)c(Cl)c1 (single isomer, unassigned) [Example 4, (-)-(3R/3S)-3-[(1S/1R)-1-(3,4-dichlorophenyl)-3-(4-hydroxy-4-phenylpiperidino)propyl]-2-methyl-2,3-dihydroisoindol-1-one hydrochloride]
- Kb: 20 nM
